Measurements: the NIST ThermoML archive (doi:10.1016/j.jct.2011.05.014)

Assay: excess molar enthalpy (molar enthalpy of mixing); xn = mol fraction of the nth substance listed
Details: 298.15 K, 101.33 kPa, Liquid, Parr 1455 Solution Calorimeter

O=Cc1ccccc1 [benzaldehyde] + CCCCO
Details | excess molar enthalpy [kcal/mol]
x1 = 0.0759 | 0.142
x1 = 0.1555 | 0.256
x1 = 0.2374 | 0.3417
x1 = 0.3186 | 0.4036
x1 = 0.4053 | 0.4345
x1 = 0.4922 | 0.4468
x1 = 0.5824 | 0.4391
x1 = 0.6314 | 0.4243
x1 = 0.6755 | 0.4059
x1 = 0.7923 | 0.3146
x1 = 0.8945 | 0.195
x1 = 0.9245 | 0.146

O=Cc1ccccc1 [benzaldehyde] + CCCO
Details | excess molar enthalpy [kcal/mol]
x1 = 0.0896 | 0.158
x1 = 0.1797 | 0.2632
x1 = 0.2698 | 0.3294
x1 = 0.3598 | 0.3728
x1 = 0.4822 | 0.391
x1 = 0.5559 | 0.3871
x1 = 0.5989 | 0.3774
x1 = 0.647 | 0.3642
x1 = 0.7017 | 0.3388
x1 = 0.7626 | 0.3006
x1 = 0.8323 | 0.237
x1 = 0.9112 | 0.146

O=Cc1ccccc1 [benzaldehyde] + CO
Details | excess molar enthalpy [kcal/mol]
x1 = 0.0877 | 0.0955
x1 = 0.1795 | 0.1561
x1 = 0.2704 | 0.1984
x1 = 0.3608 | 0.2242
x1 = 0.4509 | 0.2352
x1 = 0.5406 | 0.2337
x1 = 0.6153 | 0.223
x1 = 0.6966 | 0.1983
x1 = 0.7344 | 0.1826
x1 = 0.7803 | 0.1603
x1 = 0.8379 | 0.128
x1 = 0.9092 | 0.078

O=Cc1ccccc1 [benzaldehyde] + CCCCCO
Details | excess molar enthalpy [kcal/mol]
x1 = 0.0899 | 0.152
x1 = 0.1799 | 0.2818
x1 = 0.2699 | 0.38
x1 = 0.36 | 0.435
x1 = 0.4499 | 0.4637
x1 = 0.54 | 0.4661
x1 = 0.6259 | 0.4405
x1 = 0.6898 | 0.4032
x1 = 0.7523 | 0.357
x1 = 0.8094 | 0.2997
x1 = 0.8426 | 0.261
x1 = 0.9015 | 0.184

O=Cc1ccccc1 [benzaldehyde] + CCO
Details | excess molar enthalpy [kcal/mol]
x1 = 0.0912 | 0.141
x1 = 0.1809 | 0.2267
x1 = 0.2707 | 0.2786
x1 = 0.3603 | 0.3025
x1 = 0.4503 | 0.3107
x1 = 0.5405 | 0.3059
x1 = 0.628 | 0.2864
x1 = 0.669 | 0.2707
x1 = 0.7164 | 0.2485
x1 = 0.7714 | 0.2182
x1 = 0.8358 | 0.17
x1 = 0.9114 | 0.101
